Measurements: publication PMC4172917, “Synergy of crude enzyme cocktail from cold-adapted Cladosporium cladosporioides Ch2-2 with commercial xylanase achieving high sugars yield at low cost” (Biotechnology for Biofuels, 2014)

Assays:
[1] = system: laccase; conditions: optimal conditions (15°C, pH 3.5), but b56 states 28°C and 10 to 40 mmol/L substrate; sodium acetate buffer
[2] = system: T1, MIP (manganese-independent peroxidase); assay: initial rates, oxidation of DMP at […] nm; format: biochemical, Cladosporium cladosporioides; conditions: without H2O2 and Mn2+; optimal conditions (20°C, pH 2.5), but b56 states 28°C and 10 to 40 mmol/L substrate; malonate buffer; compound identity doubtful: DMP is spelt out as dimethyl phthalate
T1 construct: native enzyme purified from culture supernatant (ammonium sulfate, DEAE-Sephadex A 50, CM-Sephadex C 50, Sephadex G-75); about 47 kDa by SDS-PAGE

Km [1] [µM]	Structure (SMILES)	Km [2] [µM]
2.8	CCn1c(=NN=c2sc3cc(S(=O)(=O)O)ccc3n2CC)sc2cc(S(=O)(=O)O)ccc21 [ABTS]	
	COc1cccc(OC)c1O [DMP]	6.9
